This experiment addresses T1, mAChR M1 (UniProt P11229).
T1 sequence (P11229 1-460): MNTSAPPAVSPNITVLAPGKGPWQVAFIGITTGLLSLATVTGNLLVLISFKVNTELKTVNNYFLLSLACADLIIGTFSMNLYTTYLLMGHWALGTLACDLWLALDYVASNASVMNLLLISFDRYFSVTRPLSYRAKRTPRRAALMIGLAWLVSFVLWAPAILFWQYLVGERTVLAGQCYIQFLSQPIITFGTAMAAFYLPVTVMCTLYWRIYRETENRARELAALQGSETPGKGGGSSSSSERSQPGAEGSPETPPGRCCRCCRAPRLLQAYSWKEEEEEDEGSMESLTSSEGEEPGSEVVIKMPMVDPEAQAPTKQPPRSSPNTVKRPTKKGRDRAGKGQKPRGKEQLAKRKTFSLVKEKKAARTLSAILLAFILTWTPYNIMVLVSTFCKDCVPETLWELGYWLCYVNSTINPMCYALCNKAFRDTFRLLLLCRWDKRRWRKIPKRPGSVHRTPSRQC
The experiment can be described thus: mAChR M1 cell-based functional assay (calcium mobilization, antagonist mode). The following applies: for IC50: concentration of antagonist decreasing calcium flux by 50%, EC80 acetylcholine response, CHO-K1 cells expressing mAChR M1, read-out: Potency (IC50). The text has this: Chinese hamster ovary (CHO-K1) cells stably expressing rat (r)M1 were purchased from the American Type Culture Collection and cultured according to their indicated protocol. CHO cells stably expressing human (h)M2, hM3, and hM5 were described previously (Levey, et al., 1991); hM1 and hM4 cDNAs were purchased from Missouri S&T cDNA Resource; rM4 cDNA was provided by T. I. Bonner (National Institutes of Health, Bethesda, Md.). rM2 and rM3 were cloned from a rat brain cDNA library and sequence verified. hM1, rM2, rM3, hM4, and rM4 cDNAs were used to stably transfect CHO-K1 cells purchased from the American Type Culture Collection using Lipofectamine-2000. To make stable rM2, hM2, rM3, hM4, and rM4 cell lines for use in calcium mobilization assays, these cells also were stably transfected with a chimeric G-protein (Gqi5) (provided by B. R. Conklin, University of California, San Francisco) using Lipofectamine 2000. rM1, hM1, rM3, hM3, rM5, and hM5 cells were grown in Ham's F-12 medium containing 10% heat-inactivated fetal bovine serum (FBS), 20 mM HEPES, and 50 μg/mL G418 sulfate. rM2-Gqi5, hM2-Gqi5, and hM4-Gqi5 cells were grown in the same medium also containing 500 μg/mL Hygromycin B. Stable rM4-Gqi5 cells were grown in DMEM containing 10% heat-inactivated FBS, 20 mM HEPES, 400 μg/mL G418 sulfate, and […].
For high throughput measurement of antagonist inhibited increases in intracellular calcium, CHO-K1 cells stably expressing muscarinic receptors were plated in growth medium lacking G418 and hygromycin at 15,000 cells/20 μL/well in Greiner 384-well black-walled, tissue culture (TC)-treated, clear-bottom plates (VWR). Cells were incubated overnight at 37° C. and 5% CO2. The next day, cells were washed using an ELX 405 (BioTek) with four washes (80 μL) of assay buffer then aspirated to 20 μL. Next, 20 μL of 16 μM Fluo-4/acetoxymethyl ester (Invitrogen, Carlsbad, Calif.) prepared as a 2.3 mM stock in DMSO and mixed in a 1:1 ratio with 10% (w/v) Pluronic F-127 and diluted in assay buffer was added to the wells and the cell plates were incubated for 50 min at 37° C. and 5% CO2. Dye was removed by washing with the ELX 405 (four 80 μL washes of assay buffer) then aspirated to 20 μL. Compound master plates were formatted in an 11 point CRC format (1:3 dilutions) in 100% DMSO with a starting concentration of 10 mM using the BRAVO liquid handler (Agilent). Test compound CRCs were then transferred to daughter plates (240 nL) using the Echo acoustic plate reformatter (Labcyte, Sunnyvale, Calif.) and then diluted into assay buffer (40 μL) to a 2× stock using a Thermo Fisher Combi (Thermo Fisher Scientific, Waltham, Mass.).
Calcium flux was measured using the Functional Drug Screening System (FDSS) 6000 (Hamamatsu Corporation, Tokyo, Japan) as an increase in the fluorescent static ratio. Compounds were applied to cells (20 μL, 2×) using the automated system of the FDSS 6000 at 4 s into the 300 s protocol and the data were collected at 1 Hz. At 144 s into the 300 s protocol, 10 μL of an EC20 concentration of the muscarinic receptor agonist acetylcholine was added (5×), followed by the addition of 12 μL an EC80 concentration of acetylcholine at the 230 s time point (5×). Agonist activity was analyzed as a concentration-dependent increase in calcium mobilization upon compound addition. Positive allosteric modulator activity was analyzed as a concentration-dependent increase in the EC20 acetylcholine response. Antagonist activity was analyzed as a concentration-dependent decrease in the EC80 acetylcholine response. Concentration-response curves were generated using a four-parameter logistical equation in XLfit curve fitting software (IDBS, Bridgewater, N.J.) for Excel (Microsoft, Redmond, Wash.) or Prism (GraphPad Software, Inc., San Diego, Calif.).
The calcium mobilization assay was used to determine “potency”.

Where [1] appears, read: activity remaining at top dose of 30 μM test compound, as percentage of the response to an approx. EC80 concentration of ACh.
Where [2] appears, read: dash = baseline or about zero remaining activity (table footnote).

The term IC50 denotes the concentration that gives 50% inhibition.

For `CC(C)S(=O)(=O)N1CC(C(=O)N2CC3CN(c4ccncc4)CC3C2)C1` (centres unmarked) [B84], the IC50 was over 10 µM. Besides, the “Remaining Activity (%)” value under setting [1] is “≧80%”.
For the compound `O=C(C1CN(S(=O)(=O)c2ccc3c(c2)OCO3)C1)N1CCN(c2ccncc2)CC1` [B9], under setting [2], the “Remaining Activity (%)” value is listed as “— (Unless otherwise indicated with a numerical value, the percent remaining activity is baseline or about zero, i.e. as indicated by “—”)”.
As to `O=C(C1CN(S(=O)(=O)c2ccc3[nH]c(=O)oc3c2)C1)N1CCN(c2ccncc2)CC1` [B75], the IC50 was over 10 µM. Besides, the “Remaining Activity (%)” value under setting [1] is recorded as “≧80%”.
The matching figures for `O=C(C1CN(S(=O)(=O)C2CCCCC2)C1)N1CCN(c2ccncc2)CC1` [B47]: over 10 µM and 50%.
For `O=C(C1CN(S(=O)(=O)c2cccc3cnccc23)C1)N1CCC(c2cccnc2)C1` (centres unmarked) [B48], the IC50 is over 10 µM. Further, under setting [1], the “Remaining Activity (%)” value was 30%.
As to `Cn1ccc(-c2ccccc2S(=O)(=O)N2CC(C(=O)N3CCN(c4ccncc4)CC3)C2)n1` [B64], the concentration for half-maximal inhibition (IC50) is over 10 µM. Moreover, under setting [1], the “Remaining Activity (%)” value was “≧80%”.
`O=C(C1CN(S(=O)(=O)c2cccc(Cl)c2)C1)N1CCN(c2ccncc2)CC1` [B36]: under setting [1], the “Remaining Activity (%)” value worked out at 27%.
In the case of `Cn1cc(S(=O)(=O)N2CC(C(=O)N3CCN(c4ccncc4)CC3)C2)cn1` [B18], the IC50 came out at 0.74 µM. The “Remaining Activity (%)” value under setting [2] is given as “— (Unless otherwise indicated with a numerical value, the percent remaining activity is baseline or about zero, i.e. as indicated by “—”)”.
With `O=C(C1CN(S(=O)(=O)c2cc(Cl)ccc2F)C1)N1CCN(c2ccncc2)CC1` [B35], the IC50 was over 10 µM. Further, the “Remaining Activity (%)” value under setting [1] is 32%.
Take `CN1C(=O)Cc2cc(S(=O)(=O)N3CC(C(=O)N4CCN(c5ccncc5)CC4)C3)ccc21` [B49]: the IC50 is over 10 µM. For the same compound, the “Remaining Activity (%)” value under setting [1] is given as 48%.
The matching figures for `CCC(C)S(=O)(=O)N1CC(C(=O)N2CC3CN(c4ccncc4)CC3C2)C1` (centres unmarked) [B85]: over 10 µM and “≧80%”.
The matching figures for `Cn1nccc1-c1cccc(S(=O)(=O)N2CC(C(=O)N3CCN(c4ccncc4)CC3)C2)c1` [B65]: over 10 µM and “≧80%”.
For the compound `O=C(C1CN(S(=O)(=O)c2cccc3nsnc23)C1)N1CCN(c2ccncc2)CC1` [B28], the IC50 turned out to be 2.2 µM. For the same compound, the “Remaining Activity (%)” value under setting [2] is reported as “— (Unless otherwise indicated with a numerical value, the percent remaining activity is baseline or about zero, i.e. as indicated by “—”)”.
Regarding `O=C(C1CN(S(=O)(=O)c2cccc3c(Cl)nc(Cl)cc23)C1)N1CCN(c2ccncc2)CC1` [B30], the “Remaining Activity (%)” value under setting [2] is given as “— (Unless otherwise indicated with a numerical value, the percent remaining activity is baseline or about zero, i.e. as indicated by “—”)”.
On to `O=C(C1CN(S(=O)(=O)c2ccc(Cl)cn2)C1)N1CCN(c2ccncc2)CC1` [B42], for which the IC50 is over 10 µM. Also, under setting [1], the “Remaining Activity (%)” value was 34%.
For `Cc1nc(C(F)(F)F)c(S(=O)(=O)N2CC(C(=O)N3CCN(c4ccncc4)CC3)C2)s1` [B27], the IC50 stood at 2 µM. For the same compound, the “Remaining Activity (%)” value under setting [2] is reported as “— (Unless otherwise indicated with a numerical value, the percent remaining activity is baseline or about zero, i.e. as indicated by “—”)”.
`Cc1ccnc(S(=O)(=O)N2CC(C(=O)N3CCN(c4ccncc4)CC3)C2)c1` [B40]: the IC50 is over 10 µM. The “Remaining Activity (%)” value under setting [1] is 41%.
With `Cc1noc(C)c1S(=O)(=O)N1CC(C(=O)N2CCN(c3ccncc3)CC2)C1` [B25], the IC50 was 1.9 µM. Also, the “Remaining Activity (%)” value under setting [2] was “— (Unless otherwise indicated with a numerical value, the percent remaining activity is baseline or about zero, i.e. as indicated by “—”)”.
As to `O=C(C1CN(S(=O)(=O)c2cccc3nonc23)C1)N1CCN(c2ccc(Br)cn2)CC1` [B11], the IC50 turned out to be 0.35 µM. Moreover, the “Remaining Activity (%)” value under setting [2] was “— (Unless otherwise indicated with a numerical value, the percent remaining activity is baseline or about zero, i.e. as indicated by “—”)”.
Regarding `O=C(C1CN(S(=O)(=O)c2cccc3cnccc23)C1)N1CC2CN(c3ccccn3)CC2C1` (centres unmarked) [B4], the IC50 came out at 0.087 µM. In addition, under setting [2], the “Remaining Activity (%)” value is listed as “— (Unless otherwise indicated with a numerical value, the percent remaining activity is baseline or about zero, i.e. as indicated by “—”)”.
For `O=C(C1CN(S(=O)(=O)c2cccc3ncccc23)C1)N1CCN(c2ccncc2)CC1` [B26], under setting [2], the “Remaining Activity (%)” value is reported as “— (Unless otherwise indicated with a numerical value, the percent remaining activity is baseline or about zero, i.e. as indicated by “—”)”.
As to `O=C(C1CN(S(=O)(=O)C2CCOCC2)C1)N1CCN(c2ccncc2)CC1` [B81], the IC50 was over 10 µM. Also, the “Remaining Activity (%)” value under setting [1] is recorded as “≧80%”.
For `Cc1cc(S(=O)(=O)N2CC(C(=O)N3CCN(c4ccncc4)CC3)C2)cnc1Cl` [B7], the “Remaining Activity (%)” value under setting [2] is given as “— (Unless otherwise indicated with a numerical value, the percent remaining activity is baseline or about zero, i.e. as indicated by “—”)”.
In the case of `O=C(C1CN(S(=O)(=O)c2ccncc2)C1)N1CCN(c2ccncc2)CC1` [B67], the IC50 is over 10 µM. Under setting [1], the “Remaining Activity (%)” value was “≧80%”.
On to `CC(C)S(=O)(=O)N1CC(C(=O)N2CCN(c3ccncc3)CC2)C1` [B44], for which the 50% inhibitory concentration (IC50) was over 10 µM. For the same compound, under setting [1], the “Remaining Activity (%)” value was 59%.
For the compound `O=C(C1CN(S(=O)(=O)c2cccc3cnccc23)C1)N1CCN(c2ccncn2)CC1` [B20], under setting [2], the “Remaining Activity (%)” value is “— (Unless otherwise indicated with a numerical value, the percent remaining activity is baseline or about zero, i.e. as indicated by “—”)”.
Consider `O=C(C1CN(S(=O)(=O)c2cnc3ccccc3c2)C1)N1CCN(c2ccncc2)CC1` [B39], for which the IC50 is over 10 µM. The “Remaining Activity (%)” value under setting [1] came out at 48%.
`O=C1CCc2cc(S(=O)(=O)N3CC(C(=O)N4CCN(c5ccncc5)CC4)C3)ccc2N1` [B79]: the IC50 was over 10 µM. Also, the “Remaining Activity (%)” value under setting [1] is given as “≧80%”.
For `O=C(C1CN(S(=O)(=O)c2cccnc2Cl)C1)N1CCN(c2ccncc2)CC1` [B21], the IC50 is 0.86 µM. Under setting [2], the “Remaining Activity (%)” value is “— (Unless otherwise indicated with a numerical value, the percent remaining activity is baseline or about zero, i.e. as indicated by “—”)”.
Regarding `Cn1ccnc1N1CCN(C(=O)C2CN(S(=O)(=O)c3cccc4nonc34)C2)CC1` [B62], the concentration for half-maximal inhibition (IC50) was over 10 µM. For the same compound, the “Remaining Activity (%)” value under setting [1] was “≧80%”.
For the compound `O=C(C1CN(S(=O)(=O)c2cccc3nonc23)C1)N1CCN(c2nccs2)CC1` [B33], the IC50 was over 10 µM. Further, the “Remaining Activity (%)” value under setting [1] was 48%.
